Like-named read-outs stand apart in the source and are kept apart here.
Key:
GST-PPARG-LBD = GST-PPARG-LBD (Homo sapiens (Human), UniProt P37231); experiment: Lanthascreen PPARG competitive binding assay (Invitrogen, TR-FRET); settings: NA = not active, inc = incomplete curve, read-out: IC50 (nM) Lantha
In short: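 Values are fold change in 520 nm/490 nm FRET ratio relative to a 2% DMSO no-ligand control, excitation 340 nm. Compound dilutions starting at 10 μM competed against 5 nM Fluormone Pan-PPAR Green for GST-PPARG-LBD bound by 5 nM Tb anti-GST antibody. Incubation 2 h in the dark in assay buffer C, triplicate wells.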

[1] = target: Gal-4-PPAR (human PPAR LBD fused to GAL4 DNA-binding domain) (Homo sapiens (Human), UniProt P37231); experiment: GAL4-PPARG LBD / UAS-luciferase transactivation assay in HEK 293T cells; assay type: cell-based
Sequence of Gal-4-PPAR (human PPAR LBD fused to GAL4 DNA-binding domain) (P37231 238-503): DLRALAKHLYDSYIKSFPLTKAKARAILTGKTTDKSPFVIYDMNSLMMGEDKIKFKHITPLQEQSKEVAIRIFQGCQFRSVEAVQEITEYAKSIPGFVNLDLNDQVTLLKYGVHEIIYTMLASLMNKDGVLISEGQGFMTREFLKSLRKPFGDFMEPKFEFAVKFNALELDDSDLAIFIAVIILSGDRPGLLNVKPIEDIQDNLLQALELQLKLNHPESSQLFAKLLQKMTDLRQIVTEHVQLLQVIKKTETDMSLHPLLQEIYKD

[2] = Lanthascreen competitive binding
[3] = GAL4 transactivation, HEK 293T cells; NA = not active; read-out: EC50 (nM) GAL4
[4] = HEK-293T, 18 h, read-out: % transactivation at 10 μM (GAL4)
[5] = HEK-293T, 18 h; read-out: % transactivation at 10 μM (GAL4)
[6] = Lanthascreen PPARG competitive binding
[7] = GAL4 transactivation; read-out: EC50 (nM) GAL4

Sequence of GST-PPARG-LBD (P37231 238-503): as above

IC50 (GST-PPARG-LBD; [2]) | EC50 [1, 3] | activation at 10 µM [1, 4] | SMILES | activation at 10 µM [1, 5] | IC50 (GST-PPARG-LBD; [6]) | EC50 [1, 7]
21 nM | 618 nM | 25% | CCOc1cccc([C@H](C)NC(=O)c2ccc3c(c2)c(C)c(C)n3Cc2ccc(-c3ccccc3C(=O)O)cc2)c1 [Example 151, (S)-4′-((5-((1-(3-ethoxyphenyl)ethyl)carbamoyl)-2,3-dimethyl-1H-indol-1-yl)methyl)-[1,1′-biphenyl]-2-carboxylic acid] | – | – | –
53 nM | 1060 nM | – | Cc1c(C)n(Cc2ccc(-c3ccccc3C(=O)O)cc2)c2ccc(C(=O)N[C@@H](C)c3ccc(C(F)(F)F)c(F)c3)cc12 [Example 228, (S)-4′-((5-((1-(3-fluoro-4-(trifluoromethyl)phenyl)ethyl)carbamoyl)-2,3-dimethyl-1H-indol-1-yl)methyl)-[1,1′-biphenyl]-2-carboxylic acid] | 15% | – | –
3 nM | 37 nM | 30% | Cc1c(C)n(Cc2ccc(-c3ccccc3C(=O)O)cc2)c2ccc(C(=O)N[C@H](C)c3c(F)ccc(F)c3F)cc12 [Example 235, (R)-4′-((2,3-dimethyl-5-((1-(2,3,6-trifluorophenyl)ethyl)carbamoyl)-1H-indol-1-yl)methyl)-[1,1′-biphenyl]-2-carboxylic acid] | – | – | –
16 nM | 360 nM | – | COc1ccccc1[C@H](C)NC(=O)c1ccc2c(c1)c(C)c(C)n2Cc1ccc(-c2ccccc2C(=O)O)cc1 [Example 175, (S)-4′-((5-((1-(2-methoxyphenyl)ethyl)carbamoyl)-2,3-dimethyl-1H-indol-1-yl)methyl)-[1,1′-biphenyl]-2-carboxylic acid] | 20% | – | –
41 nM | 7540 nM | – | Cc1c(C)n(Cc2ccc(-c3ccccc3C(=O)O)cc2)c2ccc(C(=O)N[C@@H](C)c3ccncc3Cl)cc12 [Example 148, (S)-4′-((5-((1-(3-chloropyridin-4-yl)ethyl)carbamoyl)-2,3-dimethyl-1H-indol-1-yl)methyl)-[1,1′-biphenyl]-2-carboxylic acid] | 35% | – | –
4 nM | 114 nM | 50% | Cc1c(C)n(Cc2ccc(-c3ccccc3C(=O)O)cc2)c2ccc(C(=O)N[C@@H](C)c3cccc(F)c3Cl)cc12 [Example 170, (S)-4′-((5-((1-(2-chloro-3-fluorophenyl)ethyl)carbamoyl)-2,3-dimethyl-1H-indol-1-yl)methyl)-[1,1′-biphenyl]-2-carboxylic acid] | – | – | –
– | – | – | Cc1c(C)n(Cc2ccc(-c3ccccc3C(=O)O)cc2)c2ccc(C(=O)N[C@@H](C)c3cc(C(F)(F)F)ccc3Cl)cc12 [Example 302, (S)-4′-((5-((1-(2-Chloro-5-(trifluoromethyl)phenyl)ethyl)carbamoyl)-2,3-dimethyl-1H-indol-1-yl)methyl)-[1,1′-biphenyl]-2-carboxylic acid] | 20% | 3 nM | 48 nM
< 1 nM | 70 nM | – | Cc1c(F)cccc1[C@H](C)NC(=O)c1ccc2c(c1)c(C)c(C)n2Cc1ccc(-c2ccccc2C(=O)O)cc1 [Example 145, (S)-4′-((5-((1-(3-fluoro-2-methylphenyl)ethyl)carbamoyl)-2,3-dimethyl-1H-indol-1-yl)methyl)-[1,1′-biphenyl]-2-carboxylic acid] | 35% | – | –
12 nM | 455 nM | – | COc1cc(F)cc([C@H](C)NC(=O)c2ccc3c(c2)c(C)c(C)n3Cc2ccc(-c3ccccc3C(=O)O)cc2)c1 [Example 146, (S)-4′-((5-((1-(3-fluoro-5-methoxyphenyl)ethyl)carbamoyl)-2,3-dimethyl-1H-indol-1-yl)methyl)-[1,1′-biphenyl]-2-carboxylic acid] | 30% | – | –
– | – | – | Cc1cccc([C@H](C)NC(=O)c2ccc3c(c2)c(C)c(C)n3Cc2ccc(-c3ccccc3C(=O)O)cc2)c1 [Example 295, (S)-4′-((2,3-Dimethyl-5-((1-(m-tolyl)ethyl)carbamoyl)-1H-indol-1-yl)methyl)-[1,1′-biphenyl]-2-carboxylic acid] | 10% | 11 nM | 60 nM
– | – | – | Cc1c(C)n(Cc2ccc(-c3ccccc3C(=O)N(C)C)cc2)c2ccc(C(=O)N[C@@H](C)c3cccc(C(C)C)c3)cc12 [Example 312, (S)-1-((2′-(Dimethylcarbamoyl)-[1,1′-biphenyl]-4-yl)methyl)-N-(1-(3-isopropylphenyl)ethyl)-2,3-dimethyl-1H-indole-5-carboxamide] | 10% | 148 nM | 914 nM
– | – | – | Cc1c(C)n(Cc2ccc(-c3ccccc3C(=O)O)cc2)c2ccc(C(=O)N[C@@H](C)c3cc(F)c(F)cc3F)cc12 [Example 301, (S)-4′-((2,3-Dimethyl-5-((1-(2,4,5-trifluorophenyl)ethyl)carbamoyl)-1H-indol-1-yl)methyl)-[1,1′-biphenyl]-2-carboxylic acid] | 40% | 8 nM | 198 nM
11 nM | 608 nM | – | Cc1c(C)n(Cc2ccc(-c3ccccc3C(=O)O)cc2)c2ccc(C(=O)N[C@H](C)c3ccncc3)cc12 [Example 169, (R)-4′-((2,3-dimethyl-5-((1-(pyridin-4-yl)ethyl)carbamoyl)-1H-indol-1-yl)methyl)-[1,1′-biphenyl]-2-carboxylic acid] | 20% | – | –
– | – | – | CNC(=O)c1ccccc1-c1ccc(Cn2c(C)c(C)c3cc(C(=O)N[C@@H](C)c4cccc(C(C)C)c4)ccc32)cc1 [Example 311, (S)—N-(1-(3-Isopropylphenyl)ethyl)-2,3-dimethyl-1-((2′-(methylcarbamoyl)-[1,1′-biphenyl]-4-yl)methyl)-1H-indole-5-carboxamide] | 10% | 76 nM | 441 nM
< 1 nM | 40 nM | – | Cc1c(C)n(Cc2ccc(-c3ccccc3C(=O)O)cc2)c2ccc(C(=O)N[C@H](C)c3ccc(C(F)(F)F)c(F)c3)cc12 [Example 234, (R)-4′-((5-((1-(3-fluoro-4-(trifluoromethyl)phenyl)ethyl)carbamoyl)-2,3-dimethyl-1H-indol-1-yl)methyl)-[1,1′-biphenyl]-2-carboxylic acid] | 50% | – | –
17 nM | 169 nM | 15% | Cc1c(C)n(Cc2ccc(-c3ccccc3C(=O)O)cc2)c2ccc(C(=O)N[C@H](C)c3cc(F)ccc3C(F)(F)F)cc12 [Example 239, (R)-4′-((5-((1-(5-fluoro-2-(trifluoromethyl)phenyl)ethyl)carbamoyl)-2,3-dimethyl-1H-indol-1-yl)methyl)-[1,1′-biphenyl]-2-carboxylic acid] | – | – | –

SMILES | IC50 (GST-PPARG-LBD; [2]) | EC50 [1, 3] | activation at 10 µM [1, 4] | activation at 10 µM [1, 5] | IC50 (GST-PPARG-LBD; [6]) | EC50 [1, 7]
Cc1c(C)n(Cc2ccc(-c3ccccc3-c3nnn[nH]3)cc2)c2ccc(C(=O)N[C@H](C)c3cccc(Br)c3)cc12 [Example 187, (R)-1-((2′-(1H-tetrazol-5-yl)-[1,1′-biphenyl]-4-yl)methyl)-N-(1-(3-bromophenyl)ethyl)-2,3-dimethyl-1H-indole-5-carboxamide] | < 1 nM | 5 nM | – | 20% | – | –
Cc1c(C)n(Cc2ccc(-c3ccccc3C(=O)O)cc2)c2ccc(C(=O)N[C@@H](C)C3CCCCC3)cc12 [Example 212, (S)-4′-((5-((1-cyclohexylethyl)carbamoyl)-2,3-dimethyl-1H-indol-1-yl)methyl)-[1,1′-biphenyl]-2-carboxylic acid] | 4 nM | 209 nM | – | 20% | – | –
Cc1c(C)n(Cc2ccc(-c3ccccc3C(=O)O)cc2)c2ccc(C(=O)N[C@H](C)c3cccc(Br)n3)cc12 [Example 271, (R)-4′-((5-(1-(6-bromopyridin-2-yl)ethylcarbamoyl)-2,3-dimethyl-1H-indol-1-yl)methyl)biphenyl-2-carboxylic acid] | 2 nM | 52 nM | – | 20% | – | –
CCc1ccc([C@H](C)NC(=O)c2ccc3c(c2)c(C)c(C)n3Cc2ccc(-c3ccccc3C(=O)O)cc2)cc1 [Example 225, (S)-4′-((5-((1-(4-ethylphenyl)ethyl)carbamoyl)-2,3-dimethyl-1H-indol-1-yl)methyl)-[1,1′-biphenyl]-2-carboxylic acid] | 43 nM | 1130 nM | – | 20% | – | –
Cc1c(C)n(Cc2ccc(-c3ccccc3C(=O)O)cc2)c2ccc(C(=O)N[C@@H](C)c3ccc(C(F)(F)F)cc3C(F)(F)F)cc12 [Example 210, (S)-4′-((5-((1-(2,4-bis(trifluoromethyl)phenyl)ethyl)carbamoyl)-2,3-dimethyl-1H-indol-1-yl)methyl)-[1,1′-biphenyl]-2-carboxylic acid] | 241 nM | 1290 nM | – | 20% | – | –
CCCc1ccc([C@H](C)NC(=O)c2ccc3c(c2)c(C)c(C)n3Cc2ccc(-c3ccccc3C(=O)O)cc2)cc1 [Example 251, (S)-4′-((2,3-dimethyl-5-(1-(4-propylphenyl)ethylcarbamoyl)-1H-indol-1-yl)methyl)biphenyl-2-carboxylic acid] | 40 nM | 1610 nM | – | 30% | – | –
Cc1c(C)n(Cc2ccc(-c3ccccc3C(=O)O)cc2)c2ccc(C(=O)N[C@@H](C)c3ccc4c(c3)CCO4)cc12 [Example 218, (S)-4′-((5-((1-(2,3-dihydrobenzofuran-5-yl)ethyl)carbamoyl)-2,3-dimethyl-1H-indol-1-yl)methyl)-[1,1′-biphenyl]-2-carboxylic acid] | 223 nM | 2550 nM | – | 45% | – | –
